The source of these data is BindingDB's records for patent US20250313563 (The Broad Institute, 2025).

Each structure is given as a SMILES string. Several values for one entry are separate records, joined by “and”; a condition that tells them apart may be missing. Equal values may be shown once.

Experiment [1] deals with Glycogen synthase kinase-3 beta (Homo sapiens, UniProt P49841). Briefly: TR-FRET Assay. The gist of the method:
(§1)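 Enzyme and test compound were first incubated together for 30 minutes in assay buffer. The kinase reaction followed and was stopped with EDTA. The pSer641 signal was read by time-resolved FRET.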

The target in experiment [2] is Glycogen synthase kinase-3 alpha (Homo sapiens, UniProt P49840). Briefly: TR-FRET Assay. The gist of the method: as §1
(In general: In TR-FRET formats the signal depends on donor and acceptor labels being close together.)

Glycogen synthase kinase-3 alpha, sequence (P49840 whole entry): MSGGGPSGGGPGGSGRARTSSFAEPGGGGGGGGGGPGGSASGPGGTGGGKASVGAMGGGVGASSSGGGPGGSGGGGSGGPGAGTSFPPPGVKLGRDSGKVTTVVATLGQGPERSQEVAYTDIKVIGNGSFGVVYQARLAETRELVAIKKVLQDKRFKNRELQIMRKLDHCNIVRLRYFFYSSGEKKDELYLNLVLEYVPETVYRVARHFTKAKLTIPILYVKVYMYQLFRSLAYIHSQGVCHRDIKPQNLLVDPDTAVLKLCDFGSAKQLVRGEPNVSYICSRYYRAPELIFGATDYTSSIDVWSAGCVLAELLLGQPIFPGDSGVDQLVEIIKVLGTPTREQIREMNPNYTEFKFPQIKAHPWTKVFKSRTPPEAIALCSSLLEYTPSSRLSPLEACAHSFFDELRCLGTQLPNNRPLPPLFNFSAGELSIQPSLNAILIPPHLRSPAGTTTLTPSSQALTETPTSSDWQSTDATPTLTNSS
Glycogen synthase kinase-3 beta, sequence (P49841 whole entry): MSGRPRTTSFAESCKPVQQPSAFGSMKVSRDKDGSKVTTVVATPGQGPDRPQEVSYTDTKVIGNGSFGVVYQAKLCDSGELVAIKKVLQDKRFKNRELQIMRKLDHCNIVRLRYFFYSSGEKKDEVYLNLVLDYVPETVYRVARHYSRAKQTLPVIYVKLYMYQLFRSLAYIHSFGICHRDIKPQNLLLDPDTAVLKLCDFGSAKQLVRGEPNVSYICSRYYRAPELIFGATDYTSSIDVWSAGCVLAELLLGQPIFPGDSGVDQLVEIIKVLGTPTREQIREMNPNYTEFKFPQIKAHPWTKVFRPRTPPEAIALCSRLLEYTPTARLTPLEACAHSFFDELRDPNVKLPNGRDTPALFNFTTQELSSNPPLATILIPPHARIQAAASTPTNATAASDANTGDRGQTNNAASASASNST

As to `CCC1(c2cccc(-c3cc(C)ncc3C)c2)C2=CN=NC2NC2=C1C(=O)CC(C)(C)C2` (stereo not drawn) [US20250313563, Compound 913346], the concentration for half-maximal inhibition (IC50) (as a rule, the midpoint of a concentration-inhibition curve) in experiment [1] was 100 to 1000 nM; in experiment [2], < 100 nM.

As for `CCC1(c2cccc(-c3ccnc(C)c3C)c2)C2=CN=NC2NC2=C1C(=O)CC(C)(C)C2` (stereo not drawn) [US20250313563, Compound 913347], the IC50 in experiment [1] and in experiment [2] was < 100 nM in each case.

As to `CCC1(c2cccc(-c3ccnc(C(F)(F)F)c3)c2)C2=CN=NC2NC2=C1C(=O)CC(C)(C)C2` (stereo not drawn) [US20250313563, Compound 913348], the concentration for half-maximal inhibition (IC50) in experiment [1] is 100 to 1000 nM; in experiment [2], < 100 nM.

For the compound `CCC1(c2cccc(-c3ccnc(C(F)(F)F)c3)c2)C2=CN=NC2NC2=C1C(=O)CC(C)(C)C2` (stereo not drawn) [US20250313563, Compound 913350], the IC50 was < 100 nM and 100 to 1000 nM in experiment [1]; 100 to 1000 nM and < 100 nM in experiment [2].

Take `CCC1(c2cccc(-c3ccncc3C)c2)C2=CN=NC2NC2=C1C(=O)CC(C)(C)C2` (stereo not drawn) [US20250313563, Compound 913351]: the concentration for half-maximal inhibition (IC50) in experiment [1] and in experiment [2] was < 100 nM each time.

Consider `CCC1(c2cccc(-c3ccnc(O)c3)c2)C2=CN=NC2NC2=C1C(=O)CC(C)(C)C2` (stereo not drawn) [US20250313563, Compound 913352], for which the half-maximal inhibitory concentration (IC50) in experiment [1] and in experiment [2] was < 100 nM throughout.

For the compound `CCC1(c2cccc(C(F)(F)F)c2)C2=C(N=NC2)NC2=C1C(=O)NCCC2` (stereo not drawn) [US20250313563, Compound 913355], the half-maximal inhibitory concentration (IC50) in experiment [1] and in experiment [2] was > 5000 nM throughout.

For the compound `CC1(C)CC(=O)C2=C(C1)NC1=C(CN=N1)C21CCC(S(C)(=O)=O)CC1` (stereo not drawn) [US20250313563, Compound 913356], the IC50 in experiment [1] and in experiment [2] was < 100 nM each time.

On to `CCC1(c2cccc(-c3ccnc(C)c3)c2)C2=CN=NC2NC2=C1C(=O)NC(C)C2` (stereo not drawn) [US20250313563, Compound 913357], for which the concentration for half-maximal inhibition (IC50) is 1000 to 5000 nM in experiment [1] and 100 to 1000 nM in experiment [2].

In the case of `CCC1(c2cccc(Br)c2)C2=CN=NC2NC2=C1C(=O)NC(C)(C)C2` (stereo not drawn) [US20250313563, Compound 913439], the IC50 was 100 to 1000 nM in experiment [1] and < 100 nM in experiment [2].

For the compound `O=C1CC2(CSC2)CC2=C1C1(CCCC1)C1=CN=NC1N2` (stereo not drawn) [US20250313563, Compound 913441], the IC50 in experiment [1] and in experiment [2] was 100 to 1000 nM in each case.

Consider `CC1(C)CC(=O)C2=C(C1)NC1=C(CN=N1)[C@@]21CO[C@@H](C2CC2)C1` [US20250313563, Compound 913442], for which the concentration for half-maximal inhibition (IC50) in experiment [1] and in experiment [2] was 100 to 1000 nM in each case.

In the case of `CC[C@]1(c2cccc(C(F)(F)F)c2)C2=C(N=NC2)NC2=C1C(=O)NC2(C)C` [US20250313563, Compound 913451], the IC50 in experiment [1] was 100 to 1000 nM; in experiment [2], < 100 nM.

`CC[C@@]1(c2cccc(C(F)(F)F)c2)C2=C(N=NC2)NC2=C1C(=O)NC2(C)C` [US20250313563, Compound 913452]: the IC50 in experiment [1] and in experiment [2] was > 5000 nM throughout.

Turning to `CC[C@]1(c2cccc(C(F)(F)F)c2)C2=CN=NC2NC2=C1C(=O)NC1(CCC1)C2` (stereo partly drawn) [US20250313563, Compound 914308], the IC50 in experiment [1] was < 100 nM and 1000 to 5000 nM; in experiment [2], < 100 nM and 100 to 1000 nM.

For `CC[C@@]1(c2cccc(C(F)(F)F)c2)C2=CN=NC2NC2=C1C(=O)NC1(CCC1)C2` (stereo partly drawn) [US20250313563, Compound 914344], the figures for the IC50 in experiment [1] and in experiment [2] were > 5000 nM and 100 to 1000 nM, respectively.

For the compound `CCC1(c2cccc(-c3ccnc(C)c3)c2)C2=CN=NC2NC2=C1C(=O)NC(C)(C)C2` (stereo not drawn) [US20250313563, Compound 914930], the IC50 is 1000 to 5000 nM in experiment [1] and < 100 nM in experiment [2].

For the compound `CCC1(c2cccc(-c3ccnn3C)c2)C2=CN=NC2NC2=C1C(=O)NC(C)(C)C2` (stereo not drawn) [US20250313563, Compound 914971], the figures for the IC50 in experiment [1] and in experiment [2] were 100 to 1000 nM and < 100 nM, respectively.

On to `CC[C@]1(c2cccc(N(C)c3cnccn3)c2)C2=CN=NC2NC2=C1C(=O)CC(C)(C)C2` (stereo partly drawn) [US20250313563, Compound 915316], for which the IC50 in experiment [1] and in experiment [2] was < 100 nM in each case.
